Assay results reported in publication PMC11184554, “Nature-Inspired Gallinamides Are Potent Antischistosomal Agents: Inhibition of the Cathepsin B1 Protease Target and Binding Mode Analysis” (ACS Infectious Diseases, 2024).

Tests used:
[1] = tested on: S. mansoni newly transformed schistosomula (NTS); experiment: Phenotypic screen with newly transformed schistosomula (NTS); type: cell-based
Procedure: The same 19 gallinamides were screened for bioactivity against S. mansoni newly transformed schistosomula (NTS), the postinvasive parasite stage that feeds on host blood.[40] In this primary assay, the NTS were exposed to 1 and 10 μM compounds for 3 days, and the resulting phenotypic responses were graded from 0 through 4, i.e., the least to the most severe (Table 2 and Table S1). […] The effects were more pronounced after 72 h, and when the higher, 10 μM, compound concentration was used (Table S1). […] Also, compared to gallinamide A and its analogs, 3 has an additional N-terminal N-acetamide modification that further reduces bioactivity (Table 2).
Phenotypic screens employed S. mansoni newly transformed schistosomula (NTS) and adults and were carried out as described previously.[18]−[20],[42] NTS were prepared by mechanically transforming infective larvae (cercariae).[40],[42] NTS (200–300 parasites) were incubated in flat-bottomed 96-well plates in 200 μL of Basch Medium 169 containing 5% (v/v) FBS, 100 U mL^–1 penicillin and 100 μg mL^–1 streptomycin (complete Basch medium)[75] at 5% CO2 and 37 °C.[76],[77] Inhibitors were added at final concentrations of 1 and 10 μM, and changes in phenotypes were observed under an inverted microscope every 24 h for up to 72 h.
A constrained nomenclature of “descriptors”[39],[42] was used to record the multiple and dynamic changes in movement, shape, and translucence that the schistosome parasite is capable of (Table S1 for NTS and Table S3 for adults). These descriptors were then converted into an ordinal “severity score” system ranging from 0 (no effect) to 4 (maximum effect), which allows for the relative comparison of compound effects.

[2] = tested on: cathepsins B and L (SmCatB/L); experiment: Protease activity in extracts of adult worms treated with gallinamides, Cbz–Phe–Arg–AMC; type: cell-based, S. mansoni; settings: adult worms incubated with 5 μM compound for 24 h (Figure 2 legend: 48 h); extract assayed with Cbz–Phe–Arg–AMC at pH 5.5
Procedure: (§1) Adult mixed sex S. mansoni were incubated in the presence of 5 μM gallinamide A, 1, 6, or 9 for 24 h, and protein extracts therefrom were assayed with the cathepsins B and L substrate, Cbz–Phe–Arg–AMC. Protease activity was reduced by ∼95% relative to the activity of untreated controls (Figure 2A). For comparison, we also quantified the activity of the nondigestive proteolytic enzyme, S. mansoni prolyl oligopeptidase (SmPOP). This serine protease, which is localized in the tegument of adult worms, was assayed with the selective substrate Cbz–Gly–Pro–AMC.[44] SmPOP was unaffected by the gallinamide treatment.
(§2) Figure 2 SmCB1 is a target for gallinamides in adult S. mansoni. (A) Mixed sex, adult S. mansoni were incubated for 48 h with 5 μM gallinamide A or 1, 6, and 9. After washing and preparation of worm extract, proteolytic activities (0.2 μg of protein) were measured in a kinetic assay using the cathepsin B and L substrate, Cbz–Phe–Arg–AMC (SmCatB/L, gray bars) at pH 5.5 or the prolyl oligopeptidase substrate, Cbz–Gly–Pro–AMC (SmPOP, white bars) at pH 8.0. Means ± SE of three replicates are normalized to the control not exposed to the inhibitor (set as 100%). (B–D) Imaging of SmCB1 using the gallinamide compound 5 as an activity-based probe. 5 contains an alkyne tag that can be modified by a copper-catalyzed click reaction with a fluorescent reagent (Alexa Fluor 647-azide) (B). Recombinant SmCB1 (rSmCB1, 0.5 μg) (C) or extracts of adult S. mansoni worms (7 μg of protein) (D) were incubated with 5 (10 μM) for 1 h and then clicked. Reactions were resolved by SDS-PAGE, and gels were visualized using a fluorescence scanner (Probe), stained for protein using Coomassie Brilliant Blue (CBB), or analyzed by Western blot with an anti-SmCB1 antibody (WB). In a control experiment, rSmCB1 or worm extract was treated with the […] protease inhibitor E-64 (10 μM), prior to incubation with 5. The positions of rSmCB1, native SmCB1, and its pro-form (pro-SmCB1) are indicated. The mass difference between rSmCB1 and native SmCB1 is caused by glycosylation (see Methods). The active site of the pro-SmCB1 is shielded by a propeptide[45] that prevents effective binding of 5. […]
(§3) Proteolytic activities in S. mansoni adult extracts were measured in a continuous kinetic assay using the following peptidyl fluorogenic substrates (Bachem) or internally quenched FRET substrates (IOCB): 50 μM Cbz–Phe–Arg–AMC for cathepsins B and L,[13],[15] […] Substrate hydrolysis was measured continuously using an Infinite M1000 microplate reader (Tecan) at excitation and emission wavelengths of 360/465 nm for AMC substrates and 320/420 nm for FRET substrates. […]

[3] = tested on: S. mansoni prolyl oligopeptidase (SmPOP); experiment: Protease activity in extracts of adult worms treated with gallinamides, Cbz–Gly–Pro–AMC; type: cell-based; settings: adult worms incubated with 5 μM compound for 24 h (Figure 2 legend: 48 h); extract assayed with Cbz–Gly–Pro–AMC at pH 8.0
Procedure: as §1, §2, §3

[4] = 1 μM compound, 24 h, scale 0 (no effect) to 4 (most severe)
[5] = 1 μM compound, 48 h, scale 0 to 4
[6] = 1 μM compound, 72 h, scale 0 to 4
[7] = 10 µM compound, 24 h, scale 0 to 4
[8] = 10 µM compound, 48 h, scale 0 to 4
[9] = 10 µM compound, 72 h, scale 0 to 4

Compound: CCC(C)C(C(=O)OC(CC(C)C)C(=O)NC(CC(C)C)C(=O)NC(C)C=CC(=O)N1C(=O)C=C(OC)C1CC(C)C)N(C)C (stereo not shown) [compound 1]
- schistosomula phenotype descriptors ([1]; 1 µM compound, 24 h): R, unc
- schistosomula severity score [1, 4]: 2
- schistosomula severity score [1, 5]: 4
- schistosomula severity score [1, 6]: 4
- schistosomula severity score [1, 7]: 4
- schistosomula severity score [1, 8]: 4
- schistosomula severity score [1, 9]: 4
- protease activity reduced relative to untreated controls [2]: ~95%
- SmPOP activity after gallinamide treatment [3]: unaffected

Compound: COC1=CC(=O)N(C(=O)/C=C/[C@H](C)NC(=O)[C@H](CC(C)C)NC(=O)[C@H](CC(C)C)OC(=O)[C@H](Cc2ccccc2)N(C)C)[C@H]1Cc1ccccc1 [compound 6]
- schistosomula phenotype descriptors ([1]; 1 µM compound, 24 h): R, unc
- schistosomula severity score [1, 4]: 2
- schistosomula severity score [1, 5]: 4
- schistosomula severity score [1, 6]: 4
- schistosomula severity score [1, 7]: 4
- schistosomula severity score [1, 8]: 4
- schistosomula severity score [1, 9]: 4
- protease activity reduced relative to untreated controls [2]: ~95%
- SmPOP activity after gallinamide treatment [3]: unaffected

Compound: CCC(C)C(C(=O)OC(CC(C)C)C(=O)NC(CC(C)C)C(=O)NC(C)C=CC(=O)N1C(=O)C=C(OC)C1Cc1ccccc1)N(C)C (stereo not shown) [compound 9]
- schistosomula severity score [1, 4]: 1
- schistosomula phenotype descriptors ([1]; 1 µM compound, 48 h): Dark, R
- schistosomula severity score [1, 5]: 2
- schistosomula severity score [1, 6]: 4
- schistosomula phenotype descriptors ([1]; 10 µM compound, 24 h): Dark, R, S
- schistosomula severity score [1, 7]: 3
- schistosomula severity score [1, 8]: 4
- schistosomula severity score [1, 9]: 4
- protease activity reduced relative to untreated controls [2]: ~95%
- SmPOP activity after gallinamide treatment [3]: unaffected

Compound: CC[C@H](C)[C@@H](C(=O)O[C@@H](CC(C)C)C(=O)N[C@@H](CC(C)C)C(=O)N[C@@H](C)/C=C/C(=O)N1C(=O)C=C(OC)[C@@H]1C)N(C)C [gallinamide A]
- schistosomula severity score [1, 4]: 1
- schistosomula phenotype descriptors ([1]; 1 µM compound, 48 h): Dark, R
- schistosomula severity score [1, 5]: 2
- schistosomula severity score [1, 6]: 4
- schistosomula severity score [1, 7]: 4
- schistosomula severity score [1, 8]: 4
- schistosomula severity score [1, 9]: 4
- protease activity reduced relative to untreated controls [2]: ~95%
- SmPOP activity after gallinamide treatment [3]: unaffected
